Measurements: patent publication US10583162B2, “Compositions useful in the prevention and/or treatment of osteoarticular inflammation and pain and cartilage damage” (Indena S.P.A., priority 2016, dated 2020)

What was measured:
[1] = system: patients suffering from joint disease of the knee with constant pain; test: Analgesic activity on analogue pain scale 0 to 10 (Example 6); format: in vivo, Humans; conditions: second day
Excerpt: 40 patients suffering from joint disease of the knee with constant pain were randomised and treated with two tablets a day, one in the morning and one in the evening, of the composition of example 4, or a placebo (consisting of the carrier only), or the ingredients of the composition of example 1 added individually to the placebo formulation in amounts equal to those present in the composition of example 4.
Efficacy was scored on an international analogue pain scale with scores from 0 to 10, 10 points indicating maximum pain and 0 the disappearance of pain. The effect was evaluated on the second day after administration of the tablet, in the morning 60 and 120 minutes after treatment.

[2] = system: patients with osteoarthritis, mainly located in the knee; test: Blinded study vs piroxicam and placebo, analgesic effect on WOMAC scale (Example 5); format: in vivo, Humans
Excerpt: The analgesic activity of a composition according to the invention comprising Vitis vinifera extract complexed with phospholipids, lipophilic extract of Zingiber officinale, lipophilic extract of Zanthoxylum piperitum and an unsaponifiable fraction of Olea europaea was compared with the activity of piroxicam and a placebo. In a blinded study conducted on 180 patients with osteoarthritis, mainly located in the knee, the composition of example 1 was compared with piroxicam and a placebo by conducting a three-month treatment after randomisation, and check-ups on the joint function for six months after discontinuance of the treatment. At the beginning, the analgesic effect, measured with the Western Ontario and McMaster University Osteoarthritis (WOMAC) scale, was evaluated after 7 days' treatment with two capsules/day of the composition of example 1 vs. two […] capsules of piroxicam or placebo. After the first 7 days, the treatment continued for three months, the analgesic effect being measured once a month.

Row | Compound | Pain (scores) at time 60 min. ([1]; 60 minutes after treatment) | Pain (scores) at time 120 min. ([1]; 120 minutes after treatment) | Pain (scores) at time 0 ([1]; time 0 (before the morning tablet)) | result (analgesic effect, WOMAC scale) ([2]; 4th month, after discontinuance of the treatment) [%+/−38] | result (analgesic effect, WOMAC scale) ([2]; 5th month, after discontinuance of the treatment) [%+/−23] | efficacy maintained after discontinuance of the treatment ([2]; double-blind trial, after discontinuance) | result (analgesic effect, WOMAC scale) ([2]; during the third month's treatment, two capsules/day) [%+/−31.4] | tolerability ([2]; three-month treatment) | analgesic effect (comparison of the two treated groups) ([2]; three-month treatment, WOMAC)
1 | CC(=O)Oc1cccc2c1C(=O)c1c(OC(C)=O)cc(C(=O)O)cc1C2=O [Diacerein, diacerein] | 8.2 ± 0.9 | 7.9 ± 0.8 | 9.1 ± 1.5 | – | – | – | – | – | –
2 | CN1C(C(=O)Nc2ccccn2)=C(O)c2ccccc2S1(=O)=O [piroxicam] | – | – | – | −41 | −24 | needed to continue the treatment | −72 | had to be discontinued due to evident side effects | comparable analgesic effect
